US9132118B2, “Taxane analogs for the treatment of brain cancer” (Tapestry Pharmaceuticals, Inc., priority 2007, dated 2015)

Legend:
[1] = test system: bovine microtubule protein (tubulin plus microtubule associated proteins); test: In vitro ED50 MT polymerization study (DAPI fluorescence tubulin assay); assay type: biochemical; conditions: for ED50 Compound/ED50 Paclitaxel: ratio of tubulin polymerization ED50 values; for EC50: tubulin polymerization, 37° C. 30 minutes, percent of maximum assembly at 25 μM paclitaxel
Description: In this tubulin binding assay, microtubule protein (MTP) is used as a substrate. The assay contains bovine tubulin plus microtubule associated proteins (MAP). MTP is polymerized into microtubules in the presence of DAPI (4′,6′-diamidino-2-phenylindole), a fluorescent compound. DAPI binds to tubulin; when microtubules are formed and there is an enhancement of fluorescence. The microtubule formation is measured as a function of time, using a fluorescence plate reader. […] The method used is based on the procedure published by Donna M. Barron, et al, “Fluorescence-based high-throughput assay for antimicrotuble drugs” Analytical Biochemistry, 315: 49-56, 2003, which is incorporated by reference in its entirety. The excitation wavelength, in that assay, was set at 370 nm and the emission wavelength was set at 450 nm for the DAPI experiments.
A Bio-Tek FL 600 microplate Fluorescence Reader was used to measure the relative level of fluorescence in the DAPI assay.
Assays were conducted in 96-well plates. […] The final DMSO concentration was 4%. The plates were incubated at 37° C. for 30 minutes and read in a fluorescence plate reader using an excitation wavelength of 360 nm and an emission wavelength of 460 nm. Fluorescence values were corrected for the sample without compound. […] Experiments were done twice in triplicate. Results were subsequently combined and fit to a non-linear regression program.

[2] = test system: human U251 (glioblastoma) CNS tumor cells
Description: Tumor Model: Each animal was implanted with one million U251 human CNS tumor cells from an in vitro cell line by ic injection with a 25 gauge needle. The day of tumor implantation (May 24, 2006) was designated as day 0. A sufficient number of mice were implanted so that animals with body weights in a range as narrow as possible were selected for the trial on the day of treatment initiation (day 1 after tumor implantation). Animals were randomly assigned to the treatment groups and individually identified by earmark codes.
A portion of this solution was then diluted with the complete vehicle to achieve the lower dosing concentration of 1.2 mg/mL. […] Temozolomide (Temodar, Schering Corporation) was prepared on each day of injection in Klucel+tween 80 at a concentration of 4 mg/mL. Temozolomide was administered within 5 minutes of formulation on the basis of exact body weight using a volume of 0.2 mL/10 g of body weight.
Data Collection: Animal health surveillance was conducted and mortality data were collected daily. The animals were weighed twice weekly starting with the first day of treatment.
Study Duration: The study was terminated 100 days after tumor implantation. Any animal found moribund or whose body weight dropped below 14 g was euthanized prior to study termination.
Parameters Evaluated: Number of 100-day survivors, median day of death, and the increase in lifespan based on median day of death and expressed as a percentage (% ILS), median survival time and the % ILS based on median survival time.
Administration of the Ringer's solution was initiated when animal body weights dropped by greater than 10% and continued until the animal recovered, died, or was euthanized.

[3] = temozolomide 80 mg/kg/dose po q4d×3

Structure (SMILES) | ED50 Compound/ED50 Paclitaxel [1] | EC50 [1] | ILS ([2]; Group 4: TMZ 80 mg/kg, po. QD1, 5, 9) | loss in mean body weight [2, 3] | treatment-related deaths (in words) [2, 3]
CC(=O)O[C@@]12CO[C@@H]1C[C@H](O)[C@@]1(C)C(=O)[C@H](O)C3=C(C)[C@@H](OC(=O)[C@H](O)[C@@H](NC(=O)OC(C)(C)C)c4ccccc4)C[C@@](O)([C@@H](OC(=O)c4ccccc4)[C@H]21)C3(C)C [Docetaxel, docetaxel] | 1.07 | 3.18 ± 0.45 µM | – | – | –
C/C(=C\c1csc(C)n1)[C@@H]1C[C@@H]2O[C@]2(C)CCC[C@H](C)[C@H](O)[C@@H](C)C(=O)C(C)(C)[C@@H](O)CC(=O)O1 [Epothilone B] | 1.11 | 3.31 ± 0.51 µM | – | – | –
Cn1nnc2c(C(N)=O)ncn2c1=O [Temozolomide, reference compound] | – | – | 380% | 8% | without treatment-related deaths
